Columns and labels:
[1] = system: iron/ascorbate induced lipid peroxidation; assay: Lipid peroxidation (LPO) model, heat-treated hepatic microsomes, TBA reactive substances; type: biochemical; conditions: rat hepatic microsomes, reaction started with 10 uM FeSO4; mean ± s.e.m., n = 3-5
Experimental: Experiment 1: Lipid Peroxidation Model
Preparation of hepatic microsomes.
Male Wistar rats (200-220 g) obtained from Harlan Nederland B.V. (Horst, The Netherlands) were sacrificed by decapitation. Livers were removed and homogenized in ice-cold phosphate buffer (50 mM+0.1 mM EDTA, pH=7.4, 1:2 w/v). The homogenate was centrifuged at 10 000× g (20 min at 4° C.). Subsequently, the supernatant was centrifuged at 100 000× g for 60 min (4° C.). The pellet was resuspended in phosphate buffer and centrifuged again at 100 000× g (60 min, 4° C.). Finally the microsomal pellet was resuspended in phosphate buffer (2 g liver/ml) and 1 mL aliquots were stored at −80° C.
Microsomes were thawed and resuspended in ice-cold Tris-HCl buffer (50 mM, pH=7.4 at 37° C.) and washed by centrifugation. The pellet was resuspended in 2 mL 50 mM Tris-HCl buffer and heated to 100° C. for at least 2 min to remove all enzymatic factors just before resuspending and diluting it in ice-cold Tris buffer to 1.5 mg/mL.
Stock solutions of the flavonoids were freshly prepared in nitrogen-purged DMSO and nanopure water (1:1) just before use. The reaction was started by adding 10 uM freshly prepared FeSO4 in nitrogen-purged nanopure water. LPO was assayed by measuring thiobarbituric acid (TBA) reactive substances. At t=0, 5, 10, 15, 30, 45 and 60 min an 0.3 mL aliquot of the incubation was mixed with 2 mL of an ice-cold TBA-trichloroacetic acid-HCl-butylhydroxytoluene (BHT) solution to stop the reaction. After heating and centrifugation the absorbance at 535 vs 600 nm was determined. The TBA-trichloroacetic acid-HCl-butylhydroxytoluene solution was prepared by dissolving 41.6 mg TBA/10 ml trichloroacetic acid (16.8% w/v in 0.125 N HCl). To 10 ml TBA-trichloroacetic acid-HCl 1 ml BHT (1.5 mg/ml ethanol) was added.
The IC50 was determined by measuring the % LPO inhibition at several concentrations and interpolating the 50% inhibition point.

[2] = TEAC model (Trolox equivalent antioxidant capacity); conditions: concentration of Trolox equivalent to 1 mM test compound; mean ± S.D., n = 3-5
Experimental: A solution of 2,2′-azino-bis(3-ethylbenzthiazoline-6-sulfonic acid) (1.23 mg/mL) and azobisamidinepropane (3.96 mg/mL) in 50 mM phosphate buffer (pH=7.4) was heated at 70° C. for 20 min. The amount of ABTS radicals was measured by determination of the absorbance at 734 nm.
Stock solutions of the flavonoids were freshly prepared in nitrogen-purged DMSO and nanopure water (1:1) just before use. A calibration curve of Trolox ((+/−)-6-hydroxy-2,5,7,8-tetramethyl-chroman-2-carboxylic acid) was made in a concentration range from 0 to 20 μM. A mixture of 50 μL test compound and 950 μL ABTS^−+ solution was incubated at 37° C. for 5 min. Subsequently the absorbance at 734 nm was determined on a UV/VIS Spectrophotometer.
The antioxidant-induced decrease in absorbance is directly related to the antioxidant capacity of the compound (solution) being tested.
The Trolox equivalent antioxidant capacity (TEAC) is defined as the concentration (mM) of Trolox having an antioxidant capacity equivalent to 1 mM of the test compound.

[3] = system: isolated mouse left atrium; assay: Isolated mouse left atrium model: protection against doxorubicin-induced negative inotropy; conditions: 250 μM flavonoid with 35 μM doxorubicin, electrically paced mouse left atrium
Experimental: Experiment 3: Isolated Mouse Left Atrium Model
In order to determine the cardioprotective properties of the compounds in vitro, the protection against doxorubicin-induced negative inotropy was studied, using the isolated mouse left atrium model.
The example compounds were tested for their protective effect on the negative inotropic action of doxorubicin on the isolated mouse left atrium. The testing model has been described earlier (de Jong et al.Ress Comm Chem Pathol Pharmacol 68, 275-289 (1990). In short, left atria were isolated from male Balb/c mice (18-22 g) and stimulated with square wave pulses of 3 ms duration at a frequency of 4 Hz. Incubation with […] doxorubicin causes a decrease in inotropy of 50% (after 1 h). Atria were incubated with 35 μM doxorubicin and 250 μM flavonoid. Inotropy was measured and expressed as % basal contractile force relative to t=0.

[4] = system: doxorubicin-induced cardiotoxicity; assay: Protection against doxorubicin-induced cardiotoxicity in vivo (ST-interval in ECG, telemetry); conditions: mice
A2780 cells = assay: Interference with antitumor activity of doxorubicin, MTT assay; type: cell-based; conditions: A2780, 100 μM, 96 h
Experimental: (§1) Experiment 5: Interference with the Antitumor Activity of Doxorubicin Because of the possible use of these compounds as adjuvants in the chemotherapy, it was checked whether the compounds influenced the negative effect of doxorubicin on cell growth. […] This observation further underlined the use of these compounds as adjuvant therapy in the protection of the side effects of cytostatics. On day 0 cultured OVCAR-3, MCF-7 and A2780 cells were plated at a density of 5000 cells/well for OCAR-3 and MCF-7 and 3000 cells/well for A2780 cells. […] After incubation of 96 h at 37° C. (day 5), growth inhibitory effects were evaluated using the standard MTT assay.

MCF-7 cells = assay: as above; type: cell-based; conditions: MCF-7, 100 μM, 96 h
Experimental: as §1

OVCAR-3 cells = assay: as above; type: cell-based; conditions: OVCAR-3, 100 μM, 96 h
Experimental: as §1

[5] = system: alloxan-induced diabetic rats; assay: Antidiabetic action in alloxan-induced diabetic rats; type: in vivo; conditions: 68 mg/kg i.p. for two weeks
Experimental: In order to study the antidiabetic action of compound 9i (see FIG. 1 and the section “syntheses” above), the compound was studied in alloxan-induced diabetic rats. […] These diabetic rats were subsequently treated with compound 9i for two weeks (at 68 mg/kg, i.p.).

[6] = system: guinea pigs exposed to ozone; assay: Ozone exposure model for COPD, pulmonary neutrophil influx; type: in vivo; conditions: 1 ppm ozone 12 h then 12 h air, 68 mg/kg i.p.
Excerpt: Chronic Obstructive Pulmonary Disease is associated with oxidative stress. There are strong indications that antioxidant therapy may be beneficial in COPD ([…] et al., Am. J. Resp. Crit. Care Med. 156, 341-358 (1997)). Not only the number of exacerbations decreases, but also the progressive decrease in lung function becomes less severe under treatment with an antioxidant like N-acetylcysteine. An animal model for COPD is ozone exposure. In contrast to asthma, COPD is characterized by a neutrophil influx. […] We studied the protective effect of compound 9i in this ozone exposure model. […] To this end compound 9[…].) was given (24 h, 12 h before ozone exposure and daily during the exposure to ozone/air) to guinea pigs that were exposed to 1 ppm ozone for 12 h which was followed by 12 h of air.

## O=c1c(O[C@@H]2O[C@H](CO)[C@@H](O)[C@H](O)[C@H]2O)c(-c2ccc(O)c(O)c2)oc2ccccc12 [Compound 9i, 3′,4′-dihydroxy-3-glucoseflavone]
[1]
  IC50: 2800 ± 900 nM
[2]
  TEAC: 4.9 ± 0.3 mM
[3]
  Atrium protection (250 μM): 46%
[4]; 68 mg/kg i.p.
  potency as protector against doxorubicin-induced cardiotoxicity relative to monoHER: at least 5 times
[4]; 9i 68 mg/kg i.p., doxorubicin 4 mg/kg i.v. weekly, 6 weeks
  protection against doxorubicin-induced cardiotoxicity in vivo (in words): significantly potent activity
A2780 cells
  9i 100 μM growth %: 97.7%
MCF-7 cells
  9i 100 μM growth %: 83.8%
OVCAR-3 cells
  9i 100 μM growth %: 86.8%
[5]
  glucose plasma level compared to controls: decrease in glucose plasma level
[6]
  pulmonary neutrophil influx: could be prevented

Reference: patent publication US20020147353A1, “Novel flavonoids” (Vereniging christelijk wetenschappelijk anderwijs, priority 1999, published 2002)
